Earlier results, collected in patent US5179079A, “Nasal formulation and intranasal administration therewith” (Novo Nordisk A/S, priority 1986, dated 1993).

Conditions: compared with intravenous administration

CC(=O)[C@H]1CC[C@H]2[C@@H]3CCC4=CC(=O)CC[C@]4(C)[C@H]3CC[C@]12C [progesterone]
blood levels after absorption from the nasal cavity: blood levels almost equal to intraveneous administration

CC(C)NCC(O)COc1cccc2ccccc12 (centres unmarked) [propranolol]
blood levels after absorption from the nasal cavity: blood levels almost equal to intraveneous administration
